From the supplement of paper PMC12592484 come the findings set out here.

Molecules are shown by their SMILES.

Assay in all cases: drug sensitivity score (DSS2, normalised partial AUC of dose-response, 72 h CellTiter-Glo viability) (DSS (dimensionless)); higher = more sensitive (stronger growth inhibition / cytotoxicity); extreme values may be limits of the assay
The test system of one assay is CAF#7 (primary prostate cancer-associated fibroblasts of myCAF-like type). The method, boiled down:
(§1)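 In BREEZE, the drug sensitivity score was derived as a partial area under a fitted logistic dose–response curve over the log of that curve's upper asymptote; a higher score marks a more sensitive response. The input came from low-passage primary prostate cancer-associated fibroblasts, PF179T, WPMY-1, LNCaP and 22Rv1 cells, each seeded into 384-well plates with compounds pre-dispensed at five doses spanning a 10,000-fold range. CellTiter-Glo 2.0 luminescence after 72 h gave viability, which was normalized to vehicle and positive-control wells.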

The subject of another assay is CAF#6 (primary prostate cancer-associated fibroblasts of iCAF-like type). The method, boiled down:
as §1

In a further assay the test system is PF179T. The method, boiled down:
as §1

A further assay has as its system CAF#1 (primary prostate cancer-associated fibroblasts of myCAF-like type). The method, boiled down: as §1
In the next assay the test system is CAF#5 (primary prostate cancer-associated fibroblasts of myCAF-like type). The method, boiled down: as §1
A further assay relates to 22Rv1. The method, boiled down: as §1
The test system of the next assay is CAF#4 (primary prostate cancer-associated fibroblasts of iCAF-like type). The method, boiled down: as §1
The test system of a further assay is CAF#3 (primary prostate cancer-associated fibroblasts of myCAF-like type). The method, boiled down: as §1
The subject of the next assay is WPMY-1. The method, boiled down: as §1
For a further assay, the system named is LNCAP. In outline: as §1
A further assay deals with CAF#2 (primary prostate cancer-associated fibroblasts of iCAF-like type). In outline:
as §1

Take `Cc1cc(Nc2ncc(Cl)c(Nc3ccccc3S(=O)(=O)C(C)C)n2)c(OC(C)C)cc1C1CCNCC1` [Ceritinib] (tested concentration range 0.2-2500 nM): the drug sensitivity score with CAF#7 was found to be 2.3; in the assay on CAF#6, 1.2; with PF179T, 0.9; in the assay with CAF#1, 4.6; with CAF#5, 2.6; with 22Rv1, 3.1. For the same compound, the drug sensitivity score in the assay with CAF#4 was found to be 2.4; in the assay on CAF#3, 3; with WPMY-1 it was 1; with LNCAP it was 4.2; with CAF#2, 5.1.
On to `CCN(CC)CCCC(C)Nc1ccnc2cc(Cl)ccc12` (stereo not drawn) [Chloroquine] (tested concentration range 10-100000 nM), for which the drug sensitivity score in the assay with CAF#7 is 8.6; with CAF#6, 8.2; with PF179T, 9.5; in the assay on CAF#1 it was 5.7; in the assay on CAF#5, 7.4; in the assay on 22Rv1, 11.2. For the same compound, the drug sensitivity score with CAF#4 amounted to 8.6; with CAF#3, 8.4; in the assay on WPMY-1 it was 10.4; in the assay with LNCAP, 9.8; with CAF#2, 9.8.
With `N.N.[Cl][Pt][Cl]` [Cisplatin] (tested concentration range 10-100000 nM), the drug sensitivity score with CAF#7 is 4.8; with CAF#6, 4.3; in the assay on PF179T, 11.4; in the assay on CAF#1, 11.8; with CAF#5 it was 14.6; in the assay on 22Rv1 it was 15. In addition, the drug sensitivity score came out at 5 with CAF#4; 5.7 in the assay with CAF#3; 16 in the assay with WPMY-1; 5.6 in the assay on LNCAP; 18.1 in the assay on CAF#2.
Regarding `Nc1nc(Cl)nc2c1ncn2[C@H]1C[C@H](O)[C@@H](CO)O1` [Cladribine] (tested concentration range 0.1-1000 nM), the drug sensitivity score was 0.6 in the assay with CAF#7; 0 in the assay on CAF#6; 3.9 in the assay on PF179T; 0 with CAF#1; 0.1 with CAF#5; 1.7 in the assay with 22Rv1. The drug sensitivity score in the assay on CAF#4 came out at 0; in the assay with CAF#3, 0.5; in the assay with WPMY-1 it was 5.1; in the assay with LNCAP, 5.2; in the assay with CAF#2, 2.7.
Consider `Nc1nc(Cl)nc2c1ncn2[C@@H]1O[C@H](CO)[C@@H](O)[C@@H]1F` [Clofarabine] (tested concentration range 1-10000 nM), for which the drug sensitivity score is 9.3 in the assay with CAF#7; 6.1 with CAF#6; 10.6 in the assay on PF179T; 6.5 in the assay on CAF#1; 7.3 in the assay on CAF#5; 13.9 in the assay on 22Rv1. Further, the drug sensitivity score in the assay on CAF#4 is 4.6; in the assay on CAF#3, 5; with WPMY-1, 16.9; with LNCAP, 18.5; in the assay on CAF#2, 10.6.
On to `CCN(CC)CCOc1ccc(C(=C(Cl)c2ccccc2)c2ccccc2)cc1` [Clomifene] (tested concentration range 1-10000 nM), for which the drug sensitivity score was found to be 3.7 in the assay with CAF#7; 4 in the assay with CAF#6; 6 in the assay on PF179T; 2.3 in the assay on CAF#1; 3.7 in the assay with CAF#5; 5.7 in the assay with 22Rv1. Further, the drug sensitivity score in the assay with CAF#4 came to 4; in the assay with CAF#3, 4.2; in the assay on WPMY-1, 5.5; in the assay with LNCAP, 4.8; in the assay with CAF#2 it was 5.8.
Consider `O=C(c1ccc(F)c(F)c1Nc1ccc(I)cc1F)N1CC(O)([C@@H]2CCCCN2)C1` [Cobimetinib] (tested concentration range 0.1-1000 nM), for which the drug sensitivity score was 5.3 in the assay on CAF#7; 3.3 in the assay on CAF#6; 2.1 with PF179T; 0.5 in the assay on CAF#1; 1.9 in the assay on CAF#5; 9.6 in the assay on 22Rv1. Moreover, the drug sensitivity score turned out to be 1.6 with CAF#4; 0 with CAF#3; 4.2 in the assay with WPMY-1; 0 in the assay on LNCAP; 3.9 with CAF#2.
For the compound `COc1c(OCCCN2CCOCC2)ccc2c1N=C(NC(=O)c1cnc(N)nc1)N1CCN=C21` [Copanlisib] (tested concentration range 0.1-1000 nM), the drug sensitivity score amounted to 7.5 with CAF#7; 7 in the assay on CAF#6; 8.8 in the assay on PF179T; 7.7 in the assay with CAF#1; 9.9 with CAF#5; 14.1 with 22Rv1. Besides, the drug sensitivity score came to 8.7 with CAF#4; 6 in the assay with CAF#3; 7.7 in the assay on WPMY-1; 4.7 in the assay with LNCAP; 9.8 in the assay with CAF#2.
`CC1(COc2ccc3c(c2)ncn3-c2ccc3cccc(N4CCC(N)CC4)c3n2)COC1` [Crenolanib] (tested concentration range 1-10000 nM): the drug sensitivity score worked out at 3.5 in the assay with CAF#7; 7 with CAF#6; 4.7 in the assay with PF179T; 8.9 in the assay with CAF#1; 9.3 with CAF#5; 4.9 in the assay with 22Rv1. Further, the drug sensitivity score with CAF#4 is 3.2; in the assay on CAF#3 it was 7.5; in the assay with WPMY-1 it was 7.2; in the assay on LNCAP, 4.4; in the assay with CAF#2, 7.3.
On to `C[C@@H](Oc1cc(-c2cnn(C3CCNCC3)c2)cnc1N)c1c(Cl)ccc(F)c1Cl` [Crizotinib] (tested concentration range 0.1-1000 nM), for which the drug sensitivity score with CAF#7 stood at 0.8; with CAF#6 it was 2.5; in the assay with PF179T, 1.4; in the assay on CAF#1, 0; in the assay with CAF#5, 1.5; in the assay with 22Rv1 it was 0. Further, the drug sensitivity score in the assay with CAF#4 came to 0; in the assay on CAF#3 it was 2.7; in the assay with WPMY-1 it was 0.5; with LNCAP, 0; in the assay with CAF#2, 1.4.
For `Nc1ccn([C@@H]2O[C@H](CO)[C@@H](O)[C@@H]2O)c(=O)n1` [Cytarabine] (tested concentration range 1-10000 nM), the drug sensitivity score amounted to 2.6 in the assay with CAF#7; 0.5 in the assay with CAF#6; 12.9 in the assay with PF179T; 1.8 in the assay with CAF#1; 1.9 in the assay on CAF#5; 14.3 in the assay with 22Rv1. Further, the drug sensitivity score in the assay on CAF#4 was 5.4; with CAF#3 it was 0; with WPMY-1, 7.7; in the assay on LNCAP, 11.9; in the assay on CAF#2, 10.
In the case of `CC(C)(C)c1nc(-c2cccc(NS(=O)(=O)c3c(F)cccc3F)c2F)c(-c2ccnc(N)n2)s1` [Dabrafenib] (tested concentration range 0.2-2500 nM), the drug sensitivity score in the assay with CAF#7 was found to be 4.1; in the assay on CAF#6, 2.6; in the assay on PF179T, 2.1; in the assay on CAF#1, 1.4; in the assay with CAF#5 it was 3.5; in the assay with 22Rv1, 5.6. Also, the drug sensitivity score with CAF#4 was determined as 0; with CAF#3, 4.5; in the assay with WPMY-1, 0; in the assay on LNCAP, 4.8; in the assay with CAF#2 it was 0.2.
For `COc1cc2ncnc(Nc3ccc(F)c(Cl)c3)c2cc1NC(=O)/C=C/CN1CCCCC1` [Dacomitinib] (tested concentration range 0.1-1000 nM), the drug sensitivity score stood at 0 with CAF#7; 0 with CAF#6; 0.2 in the assay with PF179T; 0.7 with CAF#1; 0 in the assay with CAF#5; 1 in the assay on 22Rv1. Also, the drug sensitivity score in the assay on CAF#4 is 1.4; with CAF#3 it was 0.6; in the assay with WPMY-1, 1; in the assay with LNCAP it was 1.4; in the assay on CAF#2, 1.
